# US5866617A, “Formulations and methods of use 2,2'-dithio-bis-esthane sulfonate” (BioNumerik Pharmaceuticals, Inc., priority 1997, dated 1999)
# Legend:
# [1] = test system: WARD colon cancer; experiment: Antitumor activity in Fischer rats bearing subcutaneous WARD colon cancer; assay type: in vivo
# Experimental: Antitumor Response of Tumor Bearing Fischer Rats Treated with Parenteral Cisplatin (6 mg/kg or 9 mg/kg) and 2,2'-Dithio-Bis-Ethane Sulfonate (BNP7787 @ 1000 mg/kg).
# [2] = test system: Fischer rats; experiment: Protection against cisplatin induced myelosuppression in Fischer rats (day 5 WBC); assay type: in vivo; conditions: for deviation of mean WBC from untreated controls: day 5
# Experimental: FIG. 3. Total WBC Values on Day 5 Post Treatment with i.v. Cisplatin (6 mg/kg) With or Without Increasing Doses of i.v. 2,2'-Dithio-Bis-Ethane Sulfonate (BNP7787).
# (§1) The data from these studies are shown below in FIGS. 1 and 2. Under Good Laboratory Practice (GLP) conditions, Fischer rats (10 rats per treatment group) were treated with or without escalating doses of BNP7787 (up to 1000 mg/kg) administered by i.v. injection with a nephrotoxic dose of cisplatin (6 mg/kg). Serum BUN (FIG. 2) and Creatinine (FIG. 1) values were measured on day 5 and the animals were weighed daily. […] The mean day 5 WBC levels of rats treated with higher doses of 2,2'-dithio-bis-ethane sulfonate, namely the 333 mg/kg and 1,000 mg/kg treatment groups, are approximately 6,800 and 6,200, respectively. These mean WBC values are within 15% of the WBC values for untreated controls. The day 5 mean WBC counts for the cisplatin only and low dose (37 mg/kg) 2,2'-dithio-bis-ethane sulfonate treatment groups are approximately 4,800 and 4,500, respectively and represent a 32% to 36% reduction in the day 5 mean WBC from the untreated control group. The Fischer rat model is highly correlated with cisplatin induced nephrotoxicity in humans and is thus an excellent animal model to support the utility of 2,2'-dithio-bis-ethane sulfonate to protect against cisplatin induced nephrotoxicity in humans.
# [3] = Body weight change in tumor bearing Fischer rats
# Experimental: FIG. 4. Weight Change in Tumor Bearing Fischer Rats Treated with Parenteral Cisplatin (6 mg/kg or 9 mg/kg) and 2,2'-Dithio-Bis-Ethane Sulfonate (BNP7787 @ 1,000 mg/kg).
# The antitumor activity and toxicity, as measured by weight changes estimated by changes in tumor volumes and animal weights, respectively, of escalating doses of parenterally (intravenously) administered cisplatin (6 mg/kg and 9 mg/kg) with or without substantially contemporaneously intravenously administered BNP7787 (1000 mg/kg) was investigated in Fischer rats bearing subcutaneous established (~3.0 g) WARD colon cancer.
# [4] = human, in vivo, cited from earlier work
# [5] = in vivo; cited from earlier work
# [6] = rat, in vivo, iv, 180 min; cited from earlier work
# [7] = test system: rats; conditions: single i.p. dose of 3 mg cisplatin/kg, cited from earlier work
# [8] = test system: Fischer rats; experiment: Protection against cisplatin induced nephrotoxicity in Fischer rats (day 5 serum creatinine and BUN); assay type: in vivo
# Experimental: FIG. 1. Serum Creatinine Values on Day 5 Post Treatment with i.v. Cisplatin (6 mg/kg) With or Without Increasing Doses of i.v. 2,2'-Dithio-Bis-Ethane Sulfonate (BNP7787).
# FIG. 2. Serum BUN (Blood Urea Nitrogen) Values on Day 5 Post Treatment with i.v. Cisplatin (6 mg/kg) With or Without Increasing Doses of i.v. 2,2'-Dithio-Bis-Ethane Sulfonate (BNP7787).
# as §1
# [9] = Stability of 2,2'-dithio-bis-ethane sulfonate in acidic and basic aqueous media (proton NMR); assay type: physicochemical
# Experimental: The stability of 2,2'-dithio-bis-ethane sulfonate at room temperature was determined at pH ranges of 1.5 to 9.0.
# The stability of 2,2'-dithio-bis-ethane sulfonate in acidic and basic aqueous media can be studied as described in this example. In a typical experiment, 50 mg of 2,2'-dithio-bis-ethane sulfonate (as produced by using the above described method) was dissolved in one ml of water and the pH of the solution adjusted to 1.5, 2.0, 3.0, 4.0, 5.0 and 6.0 by adding 1N hydrochloric acid in water or the pH adjusted to 8.0, 9.0, 10.0 or 11.0 by adding 1N sodium hydroxide in water. The reaction mixture was then stirred for 24 hours at room temperature, the water was removed at reduced pressure, dissolved in spectral grade D2 O, and the proton NMR spectrum was recorded.
# The stability of 2,2'-dithio-bis-ethane sulfonate at pH 1.5 is further studied by heating the reaction mixture to 100 degrees Celsius for 10 minutes.
# [10] = physchem; conditions: water
# Experimental: In this example, 10 grams of the disodium salt of 2,2'-dithio-bis-ethane sulfonate was dissolved in 50 ml of sterile HPLC grade water and the pH of the solution was readjusted to a pH of 7.0 using 1N hydrochloric acid. The resulting solution was then passed through a 0.2 micron syringe filter into an autoclaved round bottom flask (250 ml). This sterile solution was then freeze dried (lyophilized) to a white crystalline powder. The lyophilized powder was then used for the following solubility studies.
# 1 ml of sterile HPLC grade water was distributed in each of ten sterilized 10 ml vials. […] Each vial was first observed at room temperature for a period of approximately 15 minutes, and then heated to a temperature of 37° C. for a period of at least 15 minutes.
# [11] = Solubility in sterile water and 0.9% sodium chloride solution, pH 7.15 (tyndall effect); assay type: physicochemical; conditions: water and 0.9% nacl, read-out: concentrations at which soluble
# Experimental: 1 ml of 0.9% sodium chloride solution was then distributed in each of a second set of six sterilized 10 ml vials. The 0.9% sodium chloride solution was obtained by dissolving 9 mg of USP grade sodium chloride in sterile HPLC grade water using an agitator.
# [12] = test system: cancer patients; conditions: cited from earlier work
# [13] = BNP7787 37 mg/kg with cisplatin 6 mg/kg
# [14] = BNP7787 333 mg/kg with cisplatin 6 mg/kg
# [15] = BNP7787 1,000 mg/kg with cisplatin 6 mg/kg
# [16] = BNP7787 1000 mg/kg i.v. with cisplatin 6 mg/kg and 9 mg/kg
compound,measurement,setting,value
"N.N.[Cl][Pt][Cl] [cisplatin, cis-diammine dichloro platinum, reference compound]","median tumor weight at maximum reduction (from 3,000 mg)",[1]; cisplatin only 6 mg/kg i.v.,700 mg
same,"median tumor weight at maximum reduction (from 3,000 mg)",[1]; cisplatin only 9 mg/kg i.v.,500 mg
same,mean day 5 WBC,[2]; cisplatin only 6 mg/kg,"approximately 4,800"
same,reduction in day 5 mean WBC from the untreated control group,[2]; cisplatin only 6 mg/kg,32%
same,loss of body weight,"[3]; cisplatin alone, 6 mg/kg and 9 mg/kg, at 6 days",up to 8%
O=S(=O)([O-])CCS.[Na+],dose appearing as thiol groups in the urine,"[4]; iv, 20 mg/kg",about 48%
same,dose excreted in the urine as reactive thiol groups,[4]; po,approximately 52%
same,minimum concentration presumed to still be protective,[4],100 µg/mL
same,administered mesna dose found in the urine in the form of mesna (reactive thiol),[5],approximately 45%
same,administered dose recovered in the urine,[6],over 80%
same,protection of kidneys from renal damage,[7]; low doses of mesna,only partially protected
same,prevention of renal damage,[7]; per os mesna,complete prevention of renal damage
O=S(=O)([O-])CCSSCCS(=O)(=O)[O-].[Na+].[Na+],nephrotoxicity (plasma BUN and creatinine levels and histopathology) relative to cisplatin only,[8]; BNP7787 37 mg/kg with cisplatin 6 mg/kg i.v.,slight increase in nephrotoxicity
same,renal protection (day 5 creatinine and BUN),[8]; BNP7787 333 mg/kg i.v. with cisplatin 6 mg/kg i.v.,100%
same,renal protection (day 5 creatinine and BUN),[8]; BNP7787 1000 mg/kg i.v. with cisplatin 6 mg/kg i.v.,100%
same,dose-response effect in renal protection,[8]; escalating i.v. doses up to 1000 mg/kg with cisplatin 6 mg/kg,clear dose-response effect
same,potentiation of cisplatin antitumor activity,[1]; BNP7787 1000 mg/kg i.v. with cisplatin 6 mg/kg or 9 mg/kg,potentiation of cisplatin antitumor activity
same,intrinsic antitumor activity,[1]; BNP7787 without cisplatin,lacks intrinsic antitumor activity
same,"median tumor weight at maximum reduction (from 3,000 mg)","[1]; cisplatin 6 mg/kg immediately followed by BNP7787 1,000 mg/kg i.v.",less than 300 mg
same,"median tumor weight at maximum reduction (from 3,000 mg)","[1]; cisplatin 9 mg/kg immediately followed by BNP7787 1,000 mg/kg i.v.",< 100 mg
same,effect on antitumor activity of cisplatin (abrogation),[1]; substantially contemporaneous administration with cisplatin,does not abrogate the antitumor activity of cisplatin
same,change in proton spectrum on heating,"[9]; pH 1.5, 100 degrees Celsius, 10 minutes",No change in the proton spectrum
same,pH range in which stable,"[9]; room temperature, 24 hours, listed as 2,2'-dithio-bis-ethane sulfonate",1.0-11.0
same,mean day 5 WBC,[2]; [13],"~4,500"
same,reduction in day 5 mean WBC from the untreated control group,[2]; [13],36%
same,mean day 5 WBC,[2]; [14],"approximately 6,800"
same,deviation of mean WBC from untreated controls,[2]; [14],≤ 15%
same,mean day 5 WBC,[2]; [15],"~6,200"
same,deviation of mean WBC from untreated controls,[2]; [15],≤ 15%
same,protective effect against cisplatin induced myelosuppression (WBC),[2]; escalating BNP7787 doses with cisplatin 6 mg/kg,dose-dependent protective effect
same,solubility,[10],10.5 to 102 mg/mL
same,solubility,[11],100 to 320 mg/mL
same,mean weights compared with all other treatment groups,[3]; [16],greater mean weights than all other treatment groups
same,protection against renal damage as measured by weight loss,[3]; [16],clearly protective against renal damage
"O=S(O)(O)=S [thiosulfates, sodium thiosulfate]",increase of cisplatin dose per meter square that could be administered intraperitoneally,[12]; thiosulfates by intravenous infusion,more than two fold
same,renal toxicity of intraperitoneal cisplatin,[12]; thiosulfates by the intravenous route,renal toxicity could be prevented
